Like-named read-outs stand apart in the source and are kept apart here.
Columns and labels:
[1] = target: T1, presynaptic dopaminergic (DA2) receptor (Oryctolagus cuniculus, UniProt G1T1Q0)
Procedure: (§1) The procedure measures the ability of the test compound to inhibit the constrictor response of isolated perfused rabbit ear artery caused by field stimulation of its adrenergic nerve terminals. Activity in this test is, then, compared with undesired alpha1 -agonist activity which is determined in the superfused rabbit ear artery segment.

[2] = system: alpha1; test: alpha1-agonist activity in superfused rabbit ear artery segment; conditions: read-out: EC50-α1, acid addition salt form
Procedure: as §1

[3] = system: alpha2; test: alpha2-agonist activity in isolated guinea pig atrial tissue
[4] = system: presynaptic dopaminergic (DA2) receptor; conditions: for vasoconstriction observed during the tests (alpha1-mediated): rabbit ear artery, Compound B at 300 nM in the effector response test
Procedure: as §1

[5] = target: T1, presynaptic dopaminergic (DA2) receptor; test: stimulation-evoked 3H-norepinephrine release from prelabelled rabbit ear artery (DA2)
[6] = system: adenylate cyclase in the caudate nucleus; conditions: compared with dopamine; cited from earlier work

T1 sequence (G1T1Q0 1-443): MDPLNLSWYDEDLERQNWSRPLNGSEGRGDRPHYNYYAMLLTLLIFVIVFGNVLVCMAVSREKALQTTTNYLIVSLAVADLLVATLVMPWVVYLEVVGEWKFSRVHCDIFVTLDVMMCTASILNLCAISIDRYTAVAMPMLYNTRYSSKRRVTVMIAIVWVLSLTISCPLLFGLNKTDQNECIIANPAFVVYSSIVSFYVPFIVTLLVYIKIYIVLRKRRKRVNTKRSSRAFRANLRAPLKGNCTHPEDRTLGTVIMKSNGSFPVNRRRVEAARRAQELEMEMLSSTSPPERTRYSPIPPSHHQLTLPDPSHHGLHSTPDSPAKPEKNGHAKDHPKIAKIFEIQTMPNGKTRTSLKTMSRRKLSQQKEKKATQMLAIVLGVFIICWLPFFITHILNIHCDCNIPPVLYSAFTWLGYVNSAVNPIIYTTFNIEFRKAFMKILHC

Compound | EC50 [1] [nM] | EC50 [2] [nM] | alpha2-agonist activity [3] | selectivity for peripheral DA2 receptor sites over alpha1 ([4]; from DA2 EC50 vs alpha1 EC50) | vasoconstriction observed during the tests (alpha1-mediated) [4] | EC50 [5] [nM] | agonist activity for adenylate cyclase [6]
CS(=O)(=O)Nc1cccc(CCN)c1 [G] | > 1000 | – | – | – | – | – | –
CCCN(CCC)CCc1ccc(O)c(NS(C)(=O)=O)c1 [Compound A] | 2 | 760 | no alpha2 -agonist activity | high selectivity for the desired peripheral DA2 receptor sites | No alpha1 -mediated vasoconstriction was observed | 10 | –
CNCCc1ccc(O)c(NS(C)(=O)=O)c1 [Compound C] | > 30 | 25 | significant α2 -activity | – | demonstrates vasoconstriction as a result of alpha1 -agonist activity | 300 | –
CS(=O)(=O)Nc1cc(CCN)ccc1O [Compound B] | > 300 | 355 | significant α2 -activity | – | vasoconstriction was observed | 3000 | –
CCCN(CCC)CCc1ccc(O)c(NS(=O)(=O)C(F)(F)F)c1 [E] | > 1000 | – | – | – | – | – | –
CC(C)NCCc1ccc(O)c(NS(C)(=O)=O)c1 [D] | > 1000 | 2000 | – | – | – | – | –
CCCN(CCC)CCc1cccc(NS(C)(=O)=O)c1 [F] | 400 | – | – | – | – | – | –
CS(=O)(=O)Nc1cc(CCN)ccc1O [3-methylsulfonamido analogue of dopamine] | – | – | – | – | – | – | weaker than was dopamine itself
